Test results from ChEMBL document CHEMBL1144739, “[6]-gingerol induces Ca2+ mobilization in Madin-Darby canine kidney cells” (2008).
Activity calls are given as the source filed them. The rule behind the calls is not given here.

How the values were obtained:
MDCK [1] = assay: Elevation of drug-induced intracellular calcium level in MDCK cells at 1 uM; type: functional, Canis lupus familiaris
MDCK [2] = assay: Inhibition of phospholipase C in dog MDCK cells assessed as change in basal intracellular calcium level in presence of U73122; type: cell-based; conditions: Canis lupus familiaris
MDCK [3] = assay: Inhibition of protein kinase C in dog MDCK cells assessed as change in intracellular calcium level in presence of GF109203 X; type: cell-based; conditions: Canis lupus familiaris
MDCK [4] = assay: Increase in drug-induced intracellular calcium level in dog MDCK cells at 0.1 uM; type: functional, cell-based; conditions: Canis lupus familiaris
MDCK [5] = assay: Inhibition of drug-induced intracellular calcium level in dog MDCK cells at 20 uM in absence of extracellular calcium; type: functional, Canis lupus familiaris; set-up: scale not given: the % may be the effect or the level left
MDCK [6] = assay: Increase in drug-induced intracellular calcium level in dog MDCK cells at 10 uM after 250 seconds; type: functional, Canis lupus familiaris
MDCK [7] = assay: Increase in drug-induced intracellular calcium level in dog MDCK cells in presence of extracellular calcium; type: functional, cell-based; conditions: Canis lupus familiaris
MDCK [8] = assay: Activation of protein kinase C in dog MDCK cells assessed as change in intracellular calcium level in presence of phorbol myristate acetate; type: cell-based; conditions: Canis lupus familiaris

## C/C=C(/C)C(=O)O[C@H]1C(C)=C2[C@H]([C@@H]1OC(=O)CCCCCCC)[C@@](C)(OC(C)=O)C[C@H](OC(=O)CCC)[C@@]1(O)[C@H]2OC(=O)[C@@]1(C)O [THAPSIGARGIN]
MDCK [1]
  Activity: 216 nM

## CCCCC[C@H](O)CC(=O)CCc1ccc(O)c(OC)c1 [GINGEROL]
MDCK [2]
  Activity: inactive
MDCK [3]
  Activity: Active
MDCK [4]
  Activity: inactive
MDCK [5]
  Activity: 78%
MDCK [6]
  Activity: 295 nM
MDCK [7]
  Activity: Dose-dependent effect
MDCK [8]
  Activity: Active
